Results: patent EP2857388A1, “Azoles containing sulfone” (Grünenthal GmbH, priority 2013, dated 2015)

Biological target: T1, human B1R (Homo sapiens, UniProt P46663)
T1 construct: expressed in transfected cells; host or cells: CHO K1 cells (Chinese Hamster Ovary), stably transfected
T1 sequence (P46663 1-353): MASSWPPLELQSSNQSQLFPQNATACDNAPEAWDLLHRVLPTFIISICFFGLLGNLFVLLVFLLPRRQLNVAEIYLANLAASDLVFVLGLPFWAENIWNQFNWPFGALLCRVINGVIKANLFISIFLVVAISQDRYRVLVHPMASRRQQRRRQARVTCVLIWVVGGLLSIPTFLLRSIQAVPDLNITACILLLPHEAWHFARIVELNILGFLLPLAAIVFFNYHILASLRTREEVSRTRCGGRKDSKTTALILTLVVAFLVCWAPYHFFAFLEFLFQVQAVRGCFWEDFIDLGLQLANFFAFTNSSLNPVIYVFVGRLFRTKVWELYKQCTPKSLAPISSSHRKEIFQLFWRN
Experiment: Functional assay at bradykinin receptor 1 (B1R): Ca2+ fluorescence (Fluo-4) in FLIPR/Novostar, antagonist mode
Assay type: cell-based
Details: test substance 10 µM; CHO K1 cells stably transfected with human B1R gene (hB1R-Zellen); agonist Lys-Des-Arg9-Bradykinin at EC80; % inhibition relative to maximal achievable inhibition; read-out: % Inhibierung (human B1R) bei 10 µM
Summary of the method: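 Antagonism read as suppression of the Ca2+ rise in Fluo-4-loaded, hB1R-transfected CHO K1 cells when Lys-Des-Arg9-bradykinin (EC80) follows a 6–20 min compound preincubation. Maximal fluorescence counts, measured on FLIPR or Novostar, yield % inhibition relative to maximum; IC50 values come from concentration series run in duplicate or triplicate.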

inhibition at 10 µM [%] | SMILES
100 | Cc1cccc(Cl)c1S(=O)(=O)Cc1noc(C(=O)N(C)CCC2CCN(c3ccncc3)CC2)n1 [CC-14, 3-[[(2-Chlor-6-methyl-phenyl)sulfonyl]-methyl]-N-methyl-N-[2-(1-pyridin-4-yl-piperidin-4-yl)-ethyl]-[1,2,4]oxadiazol-5-carbonsäure amid]
100 | COCCN1CCC(NC(=O)Cn2nc(C)c(CS(=O)(=O)c3c(C)cc(OC)cc3C)c2C)C(C)(C)C1 (stereo not shown) [CC-165, 2-[4-[[(4-Methoxy-2,6-dimethyl-phenyl)sulfonyl]-methyl]-3,5-dimethyl-1H-pyrazol-1-yl]-N-[1-(2-methoxy-ethyl)-3,3-dimethyl-piperidin-4-yl]-acetamid]
97 | COc1cc(C)c(S(=O)(=O)Cc2noc(C(=O)NC3CCC(c4ccncc4)CC3(C)C)n2)c(C)c1 (stereo not shown) [SC-31, N-(2,2-Dimethyl-4-pyridin-4-yl-cyclohexyl)-3-[[(4-methoxy-2,6-dimethyl-phenyl)sulfonyl]-methyl]-[1,2,4]oxadiazol-5-carbonsäure amid]
80 | COc1cc(C)c(S(=O)(=O)Cc2cc(C)n(CC(=O)NC3CCC(N(C)C)CC3)n2)c(C)c1 (stereo not shown) [CC-154, N-(4-Dimethylamino-cyclohexyl)-2-[3-[[(4-methoxy-2,6-dimethyl-phenyl)sulfonyl]-methyl]-5-methyl-1 H-pyrazol-1-yl]-acetamid]
